According to patent US20220047719A1, “ENHANCING SUBCUTANEOUS INJECTION AND TARGET TISSUE ACCUMULATION OF NANOPARTICLES VIA CO-ADMINISTRATION WITH MACROPINOCYTOSIS INHIBITORY NANOPARTICLES (MINP)” (Northwestern University, priority 2020, published 2022):

What was measured:
B16F10 melanoma cells = test: LatA inhibition of E-MC and E-MC(FA) uptake; format: cell-based, mouse; settings: 0.5 μM LatA 2 h, then 30 min micelles
Procedure: FIG. 10. […] B16F10 melanoma cells were treated with 0.5 μM LatA for 2 h followed by 30 min of incubation with either non-targeted E-MC or folate receptor targeted E-MC(FA) prior to analysis by flow cytometry. Data are shown as percentage inhibition of endocytosis normalized to untreated […]. N=3, p<0.001.

RAW264.7 macrophages [1] = test: Macropinocytosis inhibition, dextran-pHrodo uptake by flow cytometry; format: cell-based; settings: 2 h inhibitor, then 30 min dye
Procedure: (§1) FIG. 2. […] (a) Cryogenic transmission electron microscopy (CryoTEM) of MiNP visually confirms retention of micellar structures. (b) MiNP with ((+) MiNP) and without ((−) MiNP) loaded LatA were characterized via small angle X-ray scattering (SAXS) and fitted with a micelle model fit using SASView. […] Cells were treated with each inhibitor for 2 h followed by 30 min of incubation with pHrodo dextran prior to analysis by flow cytometry. Data are shown as a percentile scale of endocytosis inhibition. On this scale, 0% represents standard cell uptake with no inhibitor, while 100% represents complete inhibition with no uptake of dye. N=3, p<0.001. […] N=3, p<0.001. […] Macrophages were incubated with various doses of free LatA or (+) MiNP for 4 h and assessed by flow cytometry for viability via the Zombie Aqua live/dead assay. N=3, p<0.05.
(§2) To investigate macropinocytosis inhibition by MiNP and determine whether this inhibition still permits uptake via receptor-mediated endocytosis, (+) MiNP were compared to chlorpromazine, an inhibitor of receptor-mediated endocytosis. These distinct mechanisms of endocytosis were evaluated using dextran conjugated pHrodo dye and transferrin conjugated pHrodo dye to respectively quantify effects of (+) MiNP and chlorpromazine on macropinocytosis (dextran) and receptor-mediated endocytosis (transferrin). […]

RAW264.7 macrophages [2] = test: In vitro macrophage cytotoxicity, Zombie Aqua live/dead assay; format: cell-based; settings: free drug
Procedure: as §1, §2

RAW264.7 macrophages [3] = test: Receptor-mediated endocytosis, transferrin-pHrodo uptake by flow cytometry; format: cell-based; settings: 2 h inhibitor, then 30 min dye
Procedure: as §1, §2

| inhibition of transferrin-pHrodo uptake (receptor-mediated endocytosis) (RAW264.7 macrophages [3]) | inhibition of transferrin-pHrodo uptake (receptor-mediated endocytosis) (RAW264.7 macrophages [3]; listed as chlorpromazine) | Structure (SMILES) | inhibition of endocytosis of E-MC vs E-MC(FA) (B16F10 melanoma cells) | inhibition of dextran-pHrodo uptake (macropinocytosis) (RAW264.7 macrophages [1]) | inhibition of dextran-pHrodo uptake (macropinocytosis) (RAW264.7 macrophages [1]; listed as Free LatA) | doses with significant toxicity to macrophages (RAW264.7 macrophages [2]) [µM] |
| --- | --- | --- | --- | --- | --- | --- |
| – | – | C/C1=C/C(=O)O[C@@H]2C[C@@H](CC[C@H](C)/C=C\C=C\CC1)O[C@@](O)([C@@H]1CSC(=O)N1)C2 [free LatA, latrunculin A] | inhibits uptake of non-targeted E-MC more than targeted E-MC(FA) | much stronger inhibition of uptake than free chlorpromazine | significantly inhibited macropinocytosis | ≥ 0.5 |
| significantly inhibited endocytosis | significantly inhibited | CN(C)CCCN1c2ccccc2Sc2ccc(Cl)cc21 [free chlorpromazine, chlorpromazine] | – | – | – | – |
